The values that follow come from patent US20250333683A1, “A METHOD AND SYSTEM FOR SIMULATING STEM CELL DIFFERENTIATION DYNAMICS” (CellVoyant Technologies Limited, priority 2024, published 2025).

In this experiment the test system is human pluripotent cells (hPCs). Kind of experiment: Observed ground truth mesoderm differentiation (Brachyury immunofluorescence). The format is cell-based. The method, then: Stem cell differentiation: To differentiate cells into cardiac mesoderm cells, cardiomyocytes and/or endothelial intermediate, protocol described in Giacomelli et al., [1] was adapted.
Briefly, human pluripotent cells (hPCs) were seeded, as a monolayer culture, into 96-well imaging plate in BPLE basal media for twenty-four hours, with the bovine serum albumin (BSA) polyvinylalcohol essential lipids (BPLE) basal media being supplemented with 20 ng/ml of ActinvinA (Peprotech, 120-14E-2 μG), 20 ng/ml of BMP4 (Peprotech, 120-05ET-2 μG) and varying concentrations of CHIR99201 (Selleckchem, S1263). CHIR99021 was removed randomly after either 24 or 48 hours of differentiation, to determine the effect of CHIR99021 on mesoderm differentiation rates.
The day after, the primary antibody was washed out, and the cells were incubated with the fluorescence-conjugated secondary antibody (1:1000) for 1 hour at room temperature. DAPI solution was used to detect nuclei.
Ground truth for fate forecasting was inferred by using Cellpose to segment individual cell nuclei on the DAPI channel. A Multi-Otsu threshold was carried out on the Brachury channel to separate the images into foreground and background. The total number of nucleii detected was recorded and the two sets of masks were correlated to determine the proportion of cells that were positive for the immunofluorescence marker. […]

Regarding `Cc1c[nH]c(-c2cnc(NCCNc3ccc(C#N)cn3)nc2-c2ccc(Cl)cc2Cl)n1` [CHIR99021], for the setting “CHIR99021 0.93 μM, applied for 24 hours”, the “observed ground truth proportion of cells acquiring the mesodermal cell fate” value is “very low proportion”. Further, the “observed ground truth amount of Brachury positive cells after removal of CHIR99021” value (CHIR99021 1.93 μM, removed after 48 hours) is reported as “decrease in the amount of Brachury positive cells”.
